# Source: ChEMBL document CHEMBL5154848, “Synthesis of heterocyclic ring-fused analogs of HMG499 as novel degraders of HMG-CoA reductase that lower cholesterol” (Eur J Med Chem, 2022)
# Experiments:
# [1] = Downregulation of HMGCR expression in CHO-K1 cells assessed as fold change in HMGCR expression at 3 uM incubated for 16 hrs by immunoblot analysis (reference value: 1.0); assay type: functional, Cricetulus griseus
# [2] = Downregulation of HMGCR expression in CHO-K1 cells assessed as fold change in HMGCR expression at 1 uM incubated for 16 hrs by immunoblot analysis (reference value: 1.0); assay type: functional, Cricetulus griseus
# [3] = molecular target: T1, 3-hydroxy-3-methylglutaryl-coenzyme A reductase (Cricetulus griseus, UniProt P00347); assay: Induction of degradation of hamster HMGCR (TM1-8)-GFP (1 to 346 residues) transfected in CHO-7 cells incubated for 16 hrs in sterol-depleted medium by fluorescence based microplate reader assay; assay type: cell-based
# T1 sequence (P00347 whole entry): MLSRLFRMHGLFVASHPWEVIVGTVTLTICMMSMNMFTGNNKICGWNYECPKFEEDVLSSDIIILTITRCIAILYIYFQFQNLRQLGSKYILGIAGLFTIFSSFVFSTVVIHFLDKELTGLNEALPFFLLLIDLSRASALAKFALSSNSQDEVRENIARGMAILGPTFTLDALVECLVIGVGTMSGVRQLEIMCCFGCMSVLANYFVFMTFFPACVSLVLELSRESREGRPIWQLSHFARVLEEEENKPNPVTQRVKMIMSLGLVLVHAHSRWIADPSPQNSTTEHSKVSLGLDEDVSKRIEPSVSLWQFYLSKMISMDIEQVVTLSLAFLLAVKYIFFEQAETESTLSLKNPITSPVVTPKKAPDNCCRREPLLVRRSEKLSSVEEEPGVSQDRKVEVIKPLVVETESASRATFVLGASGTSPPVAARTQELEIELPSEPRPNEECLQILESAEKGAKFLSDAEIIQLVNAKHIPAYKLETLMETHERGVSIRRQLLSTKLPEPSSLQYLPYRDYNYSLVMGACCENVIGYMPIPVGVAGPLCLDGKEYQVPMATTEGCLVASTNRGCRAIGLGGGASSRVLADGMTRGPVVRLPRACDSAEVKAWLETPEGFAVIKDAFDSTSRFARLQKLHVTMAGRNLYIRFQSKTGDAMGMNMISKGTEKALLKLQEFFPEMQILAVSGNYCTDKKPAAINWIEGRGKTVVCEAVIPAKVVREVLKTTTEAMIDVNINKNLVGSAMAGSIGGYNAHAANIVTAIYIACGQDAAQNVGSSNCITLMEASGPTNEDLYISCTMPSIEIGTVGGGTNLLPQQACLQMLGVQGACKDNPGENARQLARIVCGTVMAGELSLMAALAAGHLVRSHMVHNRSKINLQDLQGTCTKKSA
# [4] = Toxicity in human SV589 cells assessed as cholesterol accumulation in lysosome at 10 uM incubated for 16 hrs by immunofluorescence based confocal microscopy; assay type: cell-based; settings: sv-589, 16 h
# [5] = Downregulation of lovastatin-induced HMGCR expression in CHO-K1 cells assessed as fold change in HMGCR expression at 1 uM incubated for 16 hrs by immunoblot analysis (reference value: 15.2); assay type: functional, Cricetulus griseus
# [6] = Downregulation of lovastatin-induced HMGCR expression in CHO-K1 cells assessed as fold change in HMGCR expression at 3 uM incubated for 16 hrs by immunoblot analysis (reference value: 15.2); assay type: functional, Cricetulus griseus
# [7] = molecular target: T2, 3-hydroxy-3-methylglutaryl-coenzyme A reductase (Homo sapiens) (UniProt P04035); assay: Induction of HMGCR-T7 (unknown origin) degradation transfected in CHO-K1 cells assessed as HMGCR ubiquitination preincubated in sterol-depleted medium for 16 hrs followed by compound addition and measured after 4 hrs in presence of MG-132 by immuno-precipicitation analysis; assay type: cell-based; settings: DDE = dose-dependent effect
# T2 sequence (whole entry): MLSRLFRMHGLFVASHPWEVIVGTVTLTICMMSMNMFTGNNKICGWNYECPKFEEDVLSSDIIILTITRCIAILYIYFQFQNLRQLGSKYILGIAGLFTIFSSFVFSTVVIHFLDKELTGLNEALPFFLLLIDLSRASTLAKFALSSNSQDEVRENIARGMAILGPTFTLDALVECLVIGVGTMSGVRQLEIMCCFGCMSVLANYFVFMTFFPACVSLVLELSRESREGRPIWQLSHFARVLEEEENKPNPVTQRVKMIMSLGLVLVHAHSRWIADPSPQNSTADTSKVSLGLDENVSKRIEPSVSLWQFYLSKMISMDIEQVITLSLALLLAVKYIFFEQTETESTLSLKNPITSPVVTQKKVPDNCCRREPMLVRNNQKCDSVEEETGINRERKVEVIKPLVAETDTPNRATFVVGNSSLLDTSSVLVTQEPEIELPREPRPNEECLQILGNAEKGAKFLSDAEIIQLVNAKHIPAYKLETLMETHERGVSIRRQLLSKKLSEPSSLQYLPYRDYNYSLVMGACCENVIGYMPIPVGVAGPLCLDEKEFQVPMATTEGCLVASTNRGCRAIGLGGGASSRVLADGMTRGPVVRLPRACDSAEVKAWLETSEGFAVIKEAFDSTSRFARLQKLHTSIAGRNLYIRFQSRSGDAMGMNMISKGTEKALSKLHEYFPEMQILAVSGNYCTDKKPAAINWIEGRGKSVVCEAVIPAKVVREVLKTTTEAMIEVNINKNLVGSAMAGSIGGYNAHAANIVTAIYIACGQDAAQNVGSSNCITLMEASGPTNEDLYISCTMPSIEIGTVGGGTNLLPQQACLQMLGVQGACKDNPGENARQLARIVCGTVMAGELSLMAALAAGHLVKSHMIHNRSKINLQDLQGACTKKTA
# [8] = test system: LX-2; assay: Downregulation of TGF-beta-1-induced cholesterol levels in human LX2 cells starved in serum free medium for 2 hrs followed by stimulation with TGF-beta-1 for 6 hrs and measured 24 hrs after compound treatment by; assay type: functional, cell-based; settings: DDE = dose-dependent effect
# [9] = test system: LX-2; assay: Antiproliferative activity against human LX2 cells assessed as reduction of TGF-beta1 induced proliferation by CCK-8 assay; assay type: functional, cell-based; settings: DDE = dose-dependent effect
# [10] = test system: LX-2; assay: Downregulation of TGF-beta-1-induced TIMP1 mRNA levels in serum starved human LX2 cells pretreated with TGF-beta-1 for 6 hrs followed by compound treatment for 24 hrs by SYBR green dye based qRT-PCR analysis; assay type: functional, cell-based; settings: dose <= 2.0 µM, DDE = dose-dependent effect
# [11] = test system: LX-2; assay: Downregulation of TGF-beta-1-induced TGF-beta-1 mRNA levels in serum starved human LX2 cells pretreated with TGF-beta-1 for 6 hrs followed by compound treatment for 24 hrs by SYBR green dye based qRT-PCR analysis; assay type: functional, cell-based; settings: dose <= 2.0 µM, DDE = dose-dependent effect
# [12] = test system: LX-2; assay: Downregulation of TGF-beta-1-induced alpha-SMA protein level in serum starved human LX2 cells pretreated with TGF-beta-1 for 6 hrs followed by compound treatment for 24 hrs by Western blot analysis; assay type: functional, cell-based; settings: DDE = dose-dependent effect
# [13] = test system: RAW264.7; assay: Downregulation of LPS-stimulated cholesterol levels in mouse RAW264.7 cells pretreated with LPS for 2 hrs followed by compound treatment for 24 hrs; assay type: functional, cell-based; settings: dose <= 2.0 µM, DDE = dose-dependent effect
# [14] = test system: RAW264.7; assay: Downregulation of LPS-stimulated IL-1-beta mRNA levels in mouse RAW264.7 cells pretreated with LPS for 2 hrs followed by compound treatment for 24 hrs by SYBR green dye based qRT-PCR analysis; assay type: functional, cell-based; settings: dose <= 2.0 µM, DDE = dose-dependent effect
smiles,measurement,setting,value
CC(=O)n1ncc2c1C(C)(C)C1=CC[C@H]3[C@@H]4CC[C@H]([C@H](C)CCC(=O)N5CCOCC5)[C@@]4(C)CC[C@@H]3[C@@]1(C)C2,fold change (FC),[1],0.1
same,fold change (FC),[2],0.3
same,EC50,[3],220 nM
same,Activity,[4],Non-Toxic
same,fold change (FC),[5],2.4
same,fold change (FC),[6],1
same,Activity,[7],Dde
same,Activity,[8],Dde
same,Activity,[9],Dde
same,Activity,[10],Dde
same,Activity,[11],Dde
same,Activity,[12],Dde
same,Activity,[13],Dde
same,Activity,[14],Dde
